Experimental findings from PubChem BioAssay AID624167 (Sanford-Burnham Center for Chemical Genomics, 2012) are described below.

Structures are written as SMILES.

Common to all, as to experiment: Peg3 promoter luciferase inhibitors, potency, dose response, cell-based, HeLa, CREF/GAPDH counter-screen panel (AID 624167)
A general note: The purpose of a counterscreen is to sort out artefacts and off-target activity.

The target in test [1] is PEG-3 (UniProt Q6IN02). Conditions: HeLa PEG-Prom luciferase reporter, overnight, CREF/GAPDH counter-screens, mean of runs. In general terms: Reporter assays use an easily measured gene product as a stand-in for the process of interest.
PEG-3 (UniProt Q6IN02), sequence (Q6IN02 whole entry, looked up): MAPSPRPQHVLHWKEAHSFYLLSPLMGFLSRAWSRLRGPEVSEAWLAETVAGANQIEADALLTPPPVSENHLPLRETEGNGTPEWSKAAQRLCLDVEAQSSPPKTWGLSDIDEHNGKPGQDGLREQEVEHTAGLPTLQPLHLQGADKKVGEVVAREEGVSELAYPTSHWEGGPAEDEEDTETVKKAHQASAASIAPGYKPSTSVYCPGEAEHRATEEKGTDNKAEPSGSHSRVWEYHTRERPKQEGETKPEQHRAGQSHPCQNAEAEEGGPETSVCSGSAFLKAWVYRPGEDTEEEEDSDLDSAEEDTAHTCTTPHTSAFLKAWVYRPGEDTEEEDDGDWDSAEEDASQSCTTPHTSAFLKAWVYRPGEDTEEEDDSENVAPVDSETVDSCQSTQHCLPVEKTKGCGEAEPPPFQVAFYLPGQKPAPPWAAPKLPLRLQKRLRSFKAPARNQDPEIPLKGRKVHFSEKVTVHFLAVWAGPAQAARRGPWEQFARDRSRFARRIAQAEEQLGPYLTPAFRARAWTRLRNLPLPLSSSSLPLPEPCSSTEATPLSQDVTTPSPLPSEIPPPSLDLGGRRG
Test [2] relates to PEG-3. Particulars: HeLa PEG-Prom luciferase reporter, overnight, CREF/GAPDH counter-screens.
Test [3] has as its system Rat fibroblasts (CREF). Particulars: CREF/GAPDH counter-screens.
Where [4] appears, read: run 1, dose range 1, individual replicate IC50 per panel.
Where [5] appears, read: run 2, dose range 1, individual replicate IC50 per panel.

Turning to `Cc1ccc(-c2nc(-c3ccccn3)no2)cc1Cl`, the IC50 (usually the concentration at which inhibition is half-maximal) in test [1] is 1.64 µM; in test [2] (setting [4]), 1.19 µM; in test [2] (setting [5]) it was 2.09 µM; in test [3] (mean of runs) it was 1.31 µM; in test [3] (setting [4]), 1.22 µM; in test [3] (setting [5]), 1.4 µM.
With `COc1cc(SC)ccc1C(=O)Nc1nc(C)cs1`, the IC50 in test [1] was 2.11 µM; in test [2] (setting [4]), 1.69 µM; in test [2] (setting [5]), 2.52 µM; in test [3] (mean of runs), 0.516 µM; in test [3] (setting [4]), 0.542 µM; in test [3] (setting [5]) it was 0.49 µM.
On to `O=c1oc2ccccc2cc1-c1cn2ccccc2n1`, for which the IC50 in test [1] is 2.74 µM; in test [2] (setting [4]), 2.31 µM; in test [2] (setting [5]), 3.17 µM; in test [3] (mean of runs), 4.47 µM; in test [3] (setting [4]) it was 2.84 µM; in test [3] (setting [5]), 6.1 µM.
In the case of `Cc1cc(/C=N/Nc2ncnc(N)c2[N+](=O)[O-])c(C)n1-c1ccccc1`, the IC50 in test [1] is 11 µM; in test [2] (setting [4]), 9.88 µM; in test [2] (setting [5]), 12 µM; in test [3] (mean of runs), 1.79 µM; in test [3] (setting [4]), 1.54 µM; in test [3] (setting [5]), 2.04 µM.
As for `O=C(Nc1nc2ccccc2[nH]1)c1ccccc1F`, the IC50 in test [1] was 1.26 µM; in test [2] (setting [4]), 1.13 µM; in test [2] (setting [5]) it was 1.4 µM; in test [3] (mean of runs), 1.47 µM; in test [3] (setting [4]), 1.26 µM; in test [3] (setting [5]), 1.68 µM.
On to `O=C(NCCc1ccccc1F)c1ccc2c(c1)OCCO2`, for which the IC50 in test [1] is 0.881 µM; in test [2] (setting [4]), 1.02 µM; in test [2] (setting [5]) it was 0.74 µM; in test [3] (mean of runs), 1.18 µM; in test [3] (setting [4]) it was 1.07 µM; in test [3] (setting [5]) it was 1.3 µM.
As for `Cc1ccc(-c2nnc(SCC(=O)Nc3ccccc3F)o2)cc1`, the IC50 in test [1] was 1.54 µM; in test [2] (setting [4]), 1.45 µM; in test [2] (setting [5]), 1.64 µM; in test [3] (mean of runs) it was 3.27 µM; in test [3] (setting [4]) it was 3.45 µM; in test [3] (setting [5]) it was 3.08 µM.
On to `Cc1cc(C)c2nc(NNC(=O)c3ccc(S(=O)(=O)N4CC(C)CC(C)C4)cc3)sc2c1` (configuration not stated), for which the IC50 in test [1] is 5.17 µM; in test [2] (setting [4]) it was 7.33 µM; in test [2] (setting [5]), 3.01 µM; in test [3] (mean of runs) it was 8.65 µM; in test [3] (setting [4]), 13.9 µM; in test [3] (setting [5]) it was 3.36 µM.
As to `CCOc1ccc2c(ccc(/C=C/c3cc(C)c4cccnc4c3O)[n+]2C)c1`, the IC50 was 5.09 µM in test [1]; 4.3 µM in test [2] (setting [4]); 5.88 µM in test [2] (setting [5]); 11.8 µM in test [3] (mean of runs); 11.9 µM in test [3] (setting [4]); 11.7 µM in test [3] (setting [5]).
For `O=C(Nc1cc(S(=O)(=O)N2CCOCC2)ccc1Cl)c1cc([N+](=O)[O-])ccc1Cl`, the IC50 in test [1] was 8.46 µM; in test [2] (setting [4]) it was 14.8 µM; in test [2] (setting [5]) it was 2.16 µM; in test [3] (mean of runs), 19 µM; in test [3] (setting [4]) it was 31.8 µM; in test [3] (setting [5]), 6.14 µM.
For `O=C(Cn1ncc(Cl)c(Cl)c1=O)N1CCc2ccccc21`, the IC50 is 8.73 µM in test [1]; 10.1 µM in test [2] (setting [4]); 7.38 µM in test [2] (setting [5]); 14.3 µM in test [3] (mean of runs); 18.5 µM in test [3] (setting [4]); 10 µM in test [3] (setting [5]).
Regarding `COc1cccc(/C=N/NC(=O)c2ccc(-c3ccccc3)cc2)c1O`, the IC50 in test [1] was 2.53 µM; in test [2] (setting [4]), 3.33 µM; in test [2] (setting [5]), 1.73 µM; in test [3] (mean of runs), 24.9 µM; in test [3] (setting [4]), 19.6 µM; in test [3] (setting [5]) it was 30.2 µM.
As for `Cc1cc(C(=O)CN2C(=O)c3ccccc3S2(=O)=O)c(C)n1CC1CCCO1` (configuration not stated), the IC50 in test [1] is 0.568 µM; in test [2] (setting [4]), 0.76 µM; in test [2] (setting [5]) it was 0.375 µM; in test [3] (mean of runs) it was 3.91 µM; in test [3] (setting [4]), 1.95 µM; in test [3] (setting [5]), 5.86 µM.
With `O=C(Nc1ccc([N+](=O)[O-])cc1)C(=O)Nc1cccc(C(=O)O)c1`, the IC50 in test [1] is 1.23 µM; in test [2] (setting [4]), 1.05 µM; in test [2] (setting [5]) it was 1.4 µM; in test [3] (mean of runs), 2.67 µM; in test [3] (setting [4]), 2.35 µM; in test [3] (setting [5]) it was 3 µM.
Turning to `C=CCn1c(C)cc(C2=NNC(=NCC)SC2)c1C`, the IC50 in test [1] is 2.37 µM; in test [2] (setting [4]), 3.02 µM; in test [2] (setting [5]), 1.72 µM; in test [3] (mean of runs), 1.72 µM; in test [3] (setting [4]), 1.49 µM; in test [3] (setting [5]), 1.95 µM.
Regarding `COc1ccccc1CNCC(O)Cn1c2ccccc2c2ccccc21` (configuration not stated), the IC50 is 8.9 µM in test [1]; 10.1 µM in test [2] (setting [4]); 7.69 µM in test [2] (setting [5]); 16.2 µM in test [3] (mean of runs); 16.7 µM in test [3] (setting [4]); 15.7 µM in test [3] (setting [5]).
For `CN(C)c1ccc(/C=C/c2nc3ccccc3s2)cc1`, the IC50 was 6.12 µM in test [1]; 4.73 µM in test [2] (setting [4]); 7.51 µM in test [2] (setting [5]); 1.56 µM in test [3] (mean of runs); 1.17 µM in test [3] (setting [4]); 1.95 µM in test [3] (setting [5]).
